Patent publication US20230364075A1, “[…] DOSAGE FORMS COMPRISING DEUTETRABENAZINE” (AUSPEX PHARMACEUTICALS, INC., priority 2020, published 2023)

Legend:
[1] = Solubility of deutetrabenazine versus pH; assay type: physicochemical
Experimental: (§1) Deutetrabenazine is permeable through the small intestinal (SI) segments in a rat perfusion model.
The dosage forms disclosed herein were developed to achieve similar pharmacokinetics (PK) of 2 doses of AUSTEDO® 12 mg tablets with a single daily dose (QD).

[2] = tested on: small intestinal (SI) segments; assay type: in vivo; settings: rat
Source text: as §1

[3] = set-up: species or system human; settings: in vivo
[4] = in vivo; cited from earlier work
[5] = Particle size distribution by laser diffractometry (Mastersizer 3000); assay type: physicochemical; settings: drug substance, Table 1
Experimental: Particle size distribution is determined by means of laser diffractometry. More specifically, the particle size distribution was determined using a Mastersizer 3000 from Malvern Instruments. The particle size determination may be carried out as a wet or dry measurement depending on the sample.
The deutetrabenazine particle size distributions following manufacture (untreated), micronization (air jet mill) and nano-milling (Dyno bead mill) are shown in Table 1.
Using a Mastersizer 3000 (Malvern Instruments), the following settings were used for dry measurement of the micro-milled and unmilled deutetrabenazine:
Using a Mastersizer 3000 (Malvern Instruments), the following settings were used for wet measurement of the nano-milled deutetrabenazine:
Deutetrabenazine particle size was reduced to a nanometer size (<1.0 micron) using a wet Dyno milling process in several passes. The milled deutetrabenazine was dispersed in excipient as above. The dispersion was passed through a 0.3 liter agitator bead mill containing 950 g of very high density zirconium oxide beads. The dispersion was passed through the agitator mill for up to 2 hrs to obtain particle size below 1.0 micron.

| SMILES | solubility ([1]; acidic environment (pH<4)) | solubility ([1]; pH ≥4) [µg/mL] | permeability through small intestinal (SI) segments [2] | ileum absorption ([2]; in vivo) | levels of absorption in the lower GI, order of segments ([2]; in vivo) | radioactive dose recovered in urine [3] | half-life of active metabolites relative to tetrabenazine [4] | D10 [5] [μm] | D50 [5] [μm] | D90 [5] [μm] |
| --- | --- | --- | --- | --- | --- | --- | --- | --- | --- | --- |
| [2H]C([2H])([2H])Oc1cc2c(cc1OC([2H])([2H])[2H])[C@H]1CC(=O)[C@H](CC(C)C)CN1CC2 [Deutetrabenazine, (RR,SS)-1,3,4,6,7,11b-hexahydro-9,10-di(methoxy-D3)-3-(2-methylpropyl)-2H-benzo[a]quinolizin-2-one] | relatively good solubility | < 2300 | permeable | about 0.0006 cm/sec | Jejunum<Mid-small intestine<Colon<Ileum | approximately 80% | increased half-life | – | – | – |
| [2H]C([2H])([2H])Oc1cc2c(cc1OC([2H])([2H])[2H])C1CC(=O)C(CC(C)C)CN1CC2 (stereo not shown) [micro-milled] | – | – | – | – | – | – | – | 1.08 | 3.31 | 7.05 |
| [2H]C([2H])([2H])Oc1cc2c(cc1OC([2H])([2H])[2H])C1CC(=O)C(CC(C)C)CN1CC2 (stereo not shown) [nano-milled] | – | – | – | – | – | – | – | 0.07 | 0.14 | 0.34 |
